Mass density and refractive index data for 4 compounds are collected here from the NIST ThermoML archive (doi:10.1016/j.jct.2018.03.025).

The conditions of data set [1]: 298.2 K; 101.33 kPa; Liquid; Vibrating tube method.
Data set [2] in a line: refractive index (Na D-line) (dimensionless). Particulars: 298.2 K; 101.33 kPa; Liquid; Standard Abbe refractometry.
A short description of data set [3]: wn = mass fraction of the nth substance listed. The settings on record: 298.2 K; 101.3 kPa; Liquid; Vibrating tube method; w1 = 0.85.
Data set [4] can be described thus: refractive index (Na D-line) (dimensionless); wn = mass fraction of the nth substance listed. The settings on record: 298.2 K; 101.3 kPa; Liquid; Standard Abbe refractometry; w1 = 0.85.

Numbers after ± are expanded uncertainties.

`CCCCCOC(C)=O` [pentyl ethanoate]: the mass density in data set [1] worked out at 872.02 ± 1.2 kg/m3. The refractive index in data set [2] is 1.3991 ± 0.0011.

For `O=P(O)(O)O` [phosphoric acid] + O, the mass density in data set [3] worked out at 1682.7 ± 1.1 kg/m3. For the same compound, in data set [4], the refractive index is given as 1.432 ± 0.001.

As for `CCCOC(C)=O` [propyl ethanoate], the mass density in data set [1] was 882.26 ± 1.2 kg/m3. Also, the refractive index in data set [2] was determined as 1.383 ± 0.0011.

Regarding `O` [water], the refractive index in data set [2] was determined as 1.3325 ± 0.001.

For orientation: mass density means the mass of a sample divided by its volume. A word on the refractive index: it is a measure of how strongly the sample bends light.
